Results published in patent EP4772509A1, “KINESIN KIF18A INHIBITOR, AND APPLICATION THEREOF” (Shanghai Apeiron Therapeutics Company Limited, priority 2023, dated 2025).
Read-outs that look alike come from different tables or passages of the source.

Key:
HT29 cells = assay: CyQuant cell proliferation activity test; format: cell-based; conditions: HT29 at 2000 cells per well, 3 days, 0.2% DMSO, XLFIT
Protocol: Materials and Cells: HT29 cells were purchased from Nanjing Cobioer Biosciences Co., Ltd.; RPMI-1640 medium, fetal bovine serum, Trypsin-EDTA (0.25%), 96-well plates, and CyQuant reagents were purchased from ThermoFisher (USA); DMSO was purchased from SIGMA (USA).
Cell Culture: HT29 cells were cultured with RPMI-1640 containing 10% fetal bovine serum under the condition of 37°C and 5% CO2. Only cells in the logarithmic growth phase could be used for the test.
Cell Proliferation Activity Test: CyQuant reagent was used to detect the proliferation inhibitory activity of compounds on HT29 cells. The cell density was adjusted, and 100 µL per well was inoculated into a 96-well plate (HT29 at 2000 cells per well), then incubated overnight at 37°C and 5% CO2. Add compounds of various target concentrations (initial concentration of 3000 nM, 3-fold dilution, 9 concentration gradients), and make the DMSO content 0.2%. The cell plate was incubated at 37°C in 5% CO2 for 3 days. CyQuant reagent was added and incubated for 1 h. The plates were read by Envision, and IC50 was calculated using XLFIT.

[1] = target: T1, Human KIF18A (amino acid sequence 1-417) (Homo sapiens, UniProt Q8NI77); assay: Enzymatic activity test (ADP-Glo, microtubule-stimulated ATPase); format: biochemical; conditions: 60 µg/mL microtubules, 25 µM ATP, 2.5 nM KIF18A protein, 120 min at ambient temperature, chemiluminescence
T1 construct: purchased Viva Biotech (Shanghai) Ltd
T1 sequence (Q8NI77 1-417): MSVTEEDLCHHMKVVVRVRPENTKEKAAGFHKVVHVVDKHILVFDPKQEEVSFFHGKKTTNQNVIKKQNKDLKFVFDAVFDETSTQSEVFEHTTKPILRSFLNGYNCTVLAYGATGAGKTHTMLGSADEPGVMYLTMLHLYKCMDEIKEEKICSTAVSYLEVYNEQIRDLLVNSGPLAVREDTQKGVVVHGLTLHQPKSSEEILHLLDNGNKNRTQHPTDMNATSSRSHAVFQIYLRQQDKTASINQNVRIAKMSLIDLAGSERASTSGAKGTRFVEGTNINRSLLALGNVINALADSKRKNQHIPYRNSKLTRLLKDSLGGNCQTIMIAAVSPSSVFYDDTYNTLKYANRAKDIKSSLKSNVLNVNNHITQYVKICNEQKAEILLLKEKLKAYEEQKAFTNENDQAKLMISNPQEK
Protocol: Materials: Human KIF18A (amino acid sequence 1-417) was purchased from Viva Biotech (Shanghai) Ltd.; the ADP-Glo™ protein kinase kit was acquired from Promega, USA; tubulin was sourced from Cytoskeleton, USA; and the 384-well assay plate and Envision multifunctional microplate reader were obtained from PerkinElmer, USA.
Enzymatic Activity Test: The compound powder was dissolved in DMSO to prepare a stock solution of 10 mM. Then gradient dilution was performed for the compounds in the microplate to achieve a final concentration of 0-10 µM. Then, 2.5 µL each of tubulin, compound, ATP, and KIF18A protein were added to the microplate in sequence for reaction at ambient temperature for 120 min. The final concentrations in the enzyme reaction were 60 µg/mL for microtubules, 25 µM for ATP, and 2.5 nM for KIF18A protein. After the enzyme reaction, 10 µL of ADP-GLO reaction reagent was added to each well and incubated at room temperature for 30 min. After that, 20 µL of detection reagent was added to each well and incubated at room temperature for 30 min in the dark. Finally, chemiluminescence detection was performed using the PerkinElmer Envision.

OVCAR3 cells = assay: Cell proliferation activity test (CyQUANT Direct); format: cell-based; conditions: 3 days, 0.2% DMSO, CyQUANT fluorescence
Protocol: Materials and Cells: OVCAR3 cells were purchased from Nanjing Cobioer Biosciences Co., Ltd. RPMI-1640 medium, fetal bovine serum, and the CyQUANT Direct Cell Proliferation Assay kit were purchased from Thermo Fisher Scientific, USA; 96-well cell culture plates were sourced from Corning, USA.
Cell Culture: OVCAR3 cells were cultured with RPMI-1640 medium containing 10% fetal bovine serum and incubated in a 5% CO2 incubator at 37°C. Only cells in the logarithmic growth phase could be used for the test.
OVCAR3 cells were inoculated into a 96-well cell culture plate at 90 µL per well and incubated overnight in a 5% CO2 incubator at 37°C. The compound powder was dissolved in DMSO to prepare a stock solution of 10 mM. Then gradient dilution was performed for the compounds in the microplate to achieve a final concentration of 0-10 µM. 10 µL of cell culture medium containing compounds was added to each well to make the final DMSO content 0.2%. The cell plates were incubated in a 5% CO2 incubator at 37°C for 3 days. 100 µL of CyQUANT detection reagent was added to each well, reacted at 37°C for 60 min, and fluorescence detection was performed using the PerkinElmer Envision.

Row | Compound | IC50 (HT29 cells; Homo sapiens, HT-29, 72 h) [µM] | IC50 ([1]; read-out: KIF18A IC50) [nM] | IC50 (OVCAR3 cells; Homo sapiens, OVCAR-3, 72 h) [µM] | IC50 ([1]; KIF18A IC50 nM) [nM] | IC50 (HT29 cells; read-out: HT-29 IC50) [µM] | IC50 (OVCAR3 cells) [µM]
1 | Cc1cc2nc(n1)N1CCC(F)(F)C(/C=C/CC3CCN(CC3)c3cc(NS(=O)(=O)CCO)c(C(=O)C4CC4)cc3-n3cc-2nn3)C1 (stereo not drawn) [Example 89, N-((3^4Z,7E)-4^5-(cyclopropanecarbonyl)-1^4,1^4-difluoro-2^6-methyl-3^1H-2(2,4)-pyrimidin-1(1,3),5(1,4)-dipiperidin-3(4,1) -triazole-4(1,2)-benzocyclooct-7-en-4^4-yl)-2-hydroxyethane-1-sulfonamide] | 0.173 | 1700 | 0.171 |  |  | 
2 | Cc1cc2nc(n1)N1CCC(F)(F)C(/C=C/CC3CCN(CC3)c3cc(NS(=O)(=O)CCO)c(C(=O)N(C)C)cc3-n3cc-2nn3)C1 (stereo not drawn) [Example 93, (3^4Z,7E)-1^4,1^4-difluoro-4^4-((2-hydroxyethyl)sulfonamido)-2^6-methyl-3^1H-2(2,4)-pyrimidin-1(1,3),5(1,4)-dipiperidin-3(4,1)-triazole-4(1,2)-benzocyclooct-7-en-4^5carboxamide] | 0.194 |  | 0.091 |  |  | 
3 | COc1cc2nc(n1)N1CCC(F)(F)C(C=CCc3cccc(c3)-c3cc(NS(=O)(=O)CCO)ccc3C(=O)N2)C1 (stereo not drawn) [Example 54, N-(1^4,1^4-difluoro-2^6-methoxy-4-oxo-3-aza-2(2,4)-pyrimidin-1(1,3)-piperidin-5(1,2),6(1,3)-diphenylheterocyclonon-8-en-5^4-yl)-2-hydroxyethane-1-sulfonamide] | > 3 |  | 0.867 | 1560 |  | 
4 | Cc1cc2nc(n1)N1CCC(F)(F)C(/C=C\CC3CCN(CC3)c3cc(NS(=O)(=O)C(C)CO)c4c(c3C(=O)N2)CCC4=O)C1 (stereo not drawn) [Example 11, (Z)-N-(1^4,1^4-difluoro-2^6-methyl-5^1,4-dioxo-5^2,5^3-dihydro-5^1hydro-3-aza-2(2,4)-pyrimidin-1(1,3),6(1,4)-dipiperidin-5(4, 5)-indenocyclonofin-8-en-5^7-yl)-1-hydroxypropane-2-sulfonamide] | 0.033 | 76 | 0.025 |  |  | 
5 | N-((1^3R,Z)-1^4,1^4-difluoro-5^1-hydroxy-2^6-methyl-4-oxo-5^2,5^3-dihydro-5^1H-3-aza-2(2,4)-pyrimidin-1(1,3),6(1,4)-dipiperi din-5(4,5)-indenoheterocyclonon-8-en-5^7-yl)-2-hydroxyethane-1-sulfonamide [Example 7] |  | 51 |  |  | 0.026 | 0.041
6 | Cc1cc2nc(n1)N1CCC(F)(F)[C@@H](CCCC3CCN(CC3)c3cc(NS(=O)(=O)CCO)c4c(c3C(=O)N2)CCC4=O)C1 [Example 6, N-((1^3S)-1^4,1^4-difluoro-2^6-methyl-5^1,4-dioxo-5^2,5^3-dihydro-5^1H-3-aza-2(2,4)-pyrimidin-1(1,3),6(1,4)-dipiperidin-5(4,5) -indenoheterocyclononane-5^7-yl)-2-hydroxyethane-1-sulfonamide] | 0.041 | 73 | 0.041 |  |  | 
7 | Cc1cc2nc(n1)N1CCC(F)(F)C(CC=Cc3ccc(nc3)-c3cc(NS(=O)(=O)CCO)ccc3C(=O)N2)C1 (stereo not drawn) [Example 48, N-(1^4,1^4-difluoro-2^6-methyl-4-oxo-3-aza-2(2,4)-pyrimidin-6(2,5)-pyridin-1(1,3)-piperidin-5(1,2)-phenylheterocyclonon-7-en-5^4-yl)-2-hydroxyethane-1-sulfonamide] | 1.56 |  | 1.21 |  |  | 
8 | Cc1cc2nc(n1)N1CCC(F)=C(/C=C\CC3CCN(CC3)c3cc(NS(=O)(=O)CCO)c4c(c3C(=O)N2)CCC4=O)C1 [Example 3, N-(1^4-fluoro-2^6-methyl-5^1,4-dioxo-11,1^2,1^3,1^6,5^2,5^3-hexahydro-5^1H-3-aza-^2(2,4)-pyrimidin-1(1,5)-pyridin-6(1,4)-piperidin-5(4,5)-indenoheterononane-8-en-5^7-yl)-2-hydroxyethane-1-sulfonamide] |  | 566 | 1.13 |  |  | 
9 | Cc1cc2nc(n1)N1CCC(F)=C(/C=C\CC3CCN(CC3)c3cc(NS(=O)(=O)CCO)ccc3-n3cc-2nn3)C1 [Example 82, N-((3^4Z,7Z)-1^4-fluoro-2^6-inethyl-1^1,1^2,1^3,1^6-tetrahydro-3^1H-2(2,4)-pyrimidin-1(1,5)-pyridin-5(1,4)-piperidin-3(4,1)-triazole-4(1,2)-benzylcyclooct-7-en-4^4-yl)-2-hydroxyethane-1-sulfonamide] |  | 1020 | 1.28 |  |  | 
10 | Cc1cc2nc(n1)N1CCC(F)(F)C(/C=C/CCC3CCN(CC3)c3cc(NS(=O)(=O)CCO)ccc3-n3cc-2nn3)C1 (racemic) [Example 86, N-((3^4,8)-1^4,1^4-difluoro-2^6-methyl-3^1H-2(2,4)-pyrimidin-1(1,3),5(1,4)-dipiperidin-3(4,1)-triazole-4(1,2)-benzoazacyclononane-8-en-44-yl)-2-hydroxyethane-1-sulfonamide] |  | 352 | 0.063 |  |  | 
11 | Cc1cc2nc(n1)C1CN(/C=C/CC3CCN(CC3)c3cc(NS(=O)(=O)CCO)ccc3-c3cn-2nn3)CCC1(F)F (single isomer, unassigned) [Example 84C, N-((3^4Z,7E)-1^4,1^4-difluoro-2^6-methyl-3^1H-2(2,4)-pyrimidin-1(1,3),5(1,4)-dipiperidin-3(1,4)-triazole-4(1,2)-benzocyclooct-7-en-4^4-yl)-2-hydroxyethane-1-sulfonamide] |  | 186 |  |  |  | 0.038
12 | Cc1cc2nc(n1)N1CCC(F)(F)C(CCCc3ccc(cc3)-c3cc(NS(=O)(=O)CCO)c(F)cc3C(=O)N2)C1 (stereo not drawn) [Example 53, 2-Hydroxy-N-(1^4,1^4,5^5-trifluoro-2^6-methyl-4-oxo-3-aza-2(2,4)-pyrimidin-1(1,3)-piperidin-5(1,2),6(1,4)-diphenylheterocyclononane-5^4-yl)ethane-1-sulfonamide] |  | 49 | 0.046 |  |  | 
13 | Cc1cc2nc(n1)N1CCC(F)(F)C(/C=C\c3csc(c3)-c3cc(NS(=O)(=O)CCO)ccc3C(=O)N2)C1 (stereo not drawn) [Example 67, N-(2^4,2^4-difluoro-1^6-methyl-7-oxo-8-aza-1(2,4)-pyrimidin-2(1,3)-piperidin-5(2,4)-thiophene-6(1,2)-benzeneheterocyclooct-3-en-6^5-yl)-2-hydroxyethane-1-sulfonamide] |  | 86 | 0.481 |  |  | 
14 | Cc1cc2nc(n1)N1CCC(F)(F)C(CCCc3ccc(cc3)-c3cc(NS(=O)(=O)CCO)ccc3C(=O)N2)C1 (single isomer, unassigned) [Example 46B, N-(1^4,1^4-difluoro-2^6-methyl-4-oxo-3-aza-2(2,4)-pyrimidin-1(1,3)-piperidin-5(1,2),6(1,4)-diphenylheterocyclononane-5^4-yl)-2-hydroxyethane-1-sulfonamide] |  | 57 |  |  | 0.036 | 
